Measurements taken from US10285982B2, “3-(1H-pyrrolo[2,3-B]pyridin-2-yl)-1H-pyrazolo[3,4-C]pyridines and therapeutic uses thereof” (Samumed, LLC, priority 2015, dated 2019).

Experiments:
Assay type in all cases: cell-based
[1] = tested on: Wnt activity (Sp5-Luc reporter, SW480 colon carcinoma cells); assay: Wnt activity screening assay, Sp5-Luc reporter gene in SW480 cells; settings: Homo sapiens; for EC50: overnight incubation; for inhibition at 10 µM: given where EC50 >10 μM, read-out: percent inhibition at 10 μM
Procedure, shortened: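 Luminescence (BrightGlo) was normalised to DMSO-only wells and fitted with a four-parameter variable-slope model for EC50; beyond 10 μM, % inhibition at 10 μM is given. Stable Sp5-Luc SW480 reporter cells, 4,000/well in 1% FBS, were exposed overnight at 37 °C to compounds, top 10 μM, 1:3 dilutions, 0.1% DMSO.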

IL-6 (THP-1 cells) = assay: IL-6 inhibition in LPS-stimulated THP-1 cells (HTRF); settings: Homo sapiens; for EC50: IL-6 in THP-1 cells, LPS 500 ng/mL, 22 hours; for inhibition at 10 µM: given where EC50 >10 μM, IL-6, THP-1 cells, LPS, read-out: percent inhibition at 10 μM
Procedure, shortened: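 Readout is the 665/620 nm HTRF ratio for secreted IL-6, normalized to DMSO wells, with EC50 from a variable-slope four-parameter fit, or % inhibition at 10 μM when above 10 μM. Cells (1% FBS, 24 h beforehand) got compound for 2 h, then LPS 500 ng/mL for 22 h at 37° C; top dose 10 μM, 0.1% DMSO.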

SW480 colon cancer cells = assay: Cell viability assay (CellTiter-Blue); settings: Homo sapiens, 96 h, four days; for inhibition at 10 µM: given where EC50 >10 μM, read-out: percent inhibition at 10 μM
Procedure, shortened: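 Resazurin reduction (Ex 560/Em 590 nm, ~3 h reagent incubation) served as the viability read-out after SW480 cells were treated for four days at 37 °C. Doses ran from 10 μM down to 0.0045 μM in eight 1:3 steps. Curves fitted non-linearly for EC50, else % inhibition at 10 μM reported.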

SMILES | EC50 [1] | EC50 (IL-6 (THP-1 cells)) | EC50 (SW480 colon cancer cells) | inhibition at 10 µM (IL-6 (THP-1 cells)) | inhibition at 10 µM (SW480 colon cancer cells) | inhibition at 10 µM [1]
CCCCC(=O)Nc1cncc(-c2cc3c(-c4cc5c(-c6ccccc6F)ccnc5[nH]4)n[nH]c3cn2)c1 [Compound 75, N-(5-(3-(4-(2-Fluorophenyl)-1H-pyrrolo[2,3-b]pyridin-2-yl)-1H-pyrazolo [3,4-c]pyridin-5-yl)pyridin-3-yl)pentanamide] | 0.542 µM | > 10 µM | 0.242 µM | 0% |  | 
O=C(Nc1cncc(-c2cc3c(-c4cc5c(-c6ccccc6F)ccnc5[nH]4)n[nH]c3cn2)c1)C1CCCCC1 [Compound 79, N-(5-(3-(4-(2-Fluorophenyl)-1H-pyrrolo[2,3-b]pyridin-2-yl)-1H-pyrazolo [3,4-c]pyridin-5-yl)pyridin-3-yl)cyclohexanecarboxamide] | 0.359 µM | > 10 µM | 3.49 µM | 5.9% |  | 
CCNCc1cncc(-c2cc3c(-c4cc5c(-c6cccnc6)ccnc5[nH]4)n[nH]c3cn2)c1 [Compound 90, N-((5-(3-(4-(Pyridin-3-yl)-1H-pyrrolo[2,3-b]pyridin-2-yl)-1H-pyrazolo[3,4-c]pyridin-5-yl)pyridin-3-yl)methyl)ethanamine] | 3.2 µM | > 10 µM | > 10 µM | 33.9% | 16% | 
CC(C)CC(=O)Nc1cncc(-c2cc3c(-c4cc5c(-c6ccncc6)ccnc5[nH]4)n[nH]c3cn2)c1 [Compound 114, 3-Methyl-N-(5-(3-(4-(pyridin-4-yl)-1H-pyrrolo[2,3-b]pyridin-2-yl)-1H-pyrazolo[3,4-c]pyridin-5-yl)pyridin-3-yl)butanamide] | > 10 µM | > 10 µM | > 10 µM | 13% | 0% | 9.6%
Cc1ccncc1-c1cc2c(-c3cc4c(-c5ccncc5)ccnc4[nH]3)n[nH]c2cn1 [Compound 117, 5-(4-Methylpyridin-3-yl)-3-(4-(pyridin-4-yl)-1H-pyrrolo[2,3-b]pyridin-2-yl)-1H-pyrazolo[3,4-c]pyridine] | > 10 µM | > 10 µM | 8.43 µM | 15.9% |  | 42.4%
O=C(Cc1ccccc1)Nc1cncc(-c2cc3c(-c4cc5c(-c6ccncc6)ccnc5[nH]4)n[nH]c3cn2)c1 [Compound 122, 2-Phenyl-N-(5-(3-(4-(pyridin-4-yl)-1H-pyrrolo[2,3-b]pyridin-2-yl)-1H-pyrazolo[3,4-c]pyridin-5-yl)pyridin-3-yl)acetamide] | > 10 µM | > 10 µM | > 10 µM | 34.8% | 7% | 7.9%
CN(C)Cc1cncc(-c2cc3c(-c4cc5c(-c6ccncc6)ccnc5[nH]4)n[nH]c3cn2)c1 [Compound 125, N,N-Dimethyl-1-(5-(3-(4-(pyridin-4-yl)-1H-pyrrolo[2,3-b]pyridin-2-yl)-1H-pyrazolo[3,4-c]pyridin-5-yl)pyridin-3-yl)methanamine] | > 10 µM | > 10 µM | > 10 µM | 34.4% | 3.9% | 12.6%
O=C(Nc1cncc(-c2cc3c(-c4cc5c(-c6ccncc6)ccnc5[nH]4)n[nH]c3cn2)c1)C1CCC1 [Compound 133, N-(5-(3-(4-(Pyridin-4-yl)-1H-pyrrolo[2,3-b]pyridin-2-yl)-1H-pyrazolo[3,4-c]pyridin-5-yl)pyridin-3-yl)cyclobutanecarboxamide] | > 10 µM | > 10 µM | > 10 µM | 11.9% | 3.7% | 1.8%
O=C(Nc1cncc(-c2cc3c(-c4cc5c(-c6ccncc6)ccnc5[nH]4)n[nH]c3cn2)c1)C1CCCCC1 [Compound 135, N-(5-(3-(4-(Pyridin-4-yl)-1H-pyrrolo[2,3-b]pyridin-2-yl)-1H-pyrazolo[3,4-c]pyridin-5-yl)pyridin-3-yl)cyclohexanecarboxamide] | > 10 µM | > 10 µM | > 10 µM | 17.8% | 10.3% | 13%
c1ccc(-c2cc3c(-c4cc5c(-c6ccncc6)ccnc5[nH]4)n[nH]c3cn2)nc1 [Compound 140, 5-(Pyridin-2-yl)-3-(4-(pyridin-4-yl)-1H-pyrrolo[2,3-b]pyridin-2-yl)-1H-pyrazolo[3,4-c]pyridine] | > 10 µM | > 10 µM | > 10 µM | 23.5% | 17.5% | 24.3%
c1cc(N2CCCCC2)c2cc(-c3n[nH]c4cnc(-c5cncc(CN6CCCC6)c5)cc34)[nH]c2n1 [Compound 182, 3-(4-(Piperidin-1-yl)-1H-pyrrolo[2,3-b]pyridin-2-yl)-5-(5-(pyrrolidin-1-ylmethyl)pyridin-3-yl)-1H-pyrazolo[3,4-c]pyridine] | > 10 µM | > 10 µM | > 10 µM | 39% | 54.9% | 41.4%
O=C(Nc1cncc(-c2cc3c(-c4cc5c(N6CCCCC6)ccnc5[nH]4)n[nH]c3cn2)c1)C1CC1 [Compound 188, N-(5-(3-(4-(Piperidin-1-yl)-1H-pyrrolo[2,3-b]pyridin-2-yl)-1H-pyrazolo[3,4-c]pyridin-5-yl)pyridin-3-yl)cyclopropanecarboxamide] | 1.23 µM | > 10 µM | 1.28 µM | 16.2% |  | 
CN1CCN(c2ccnc3[nH]c(-c4n[nH]c5cnc(-c6cncc(N(C)C)c6)cc45)cc23)CC1 [Compound 231, N,N-Dimethyl-5-(3-(4-(4-methylpiperazin-1-yl)-1H-pyrrolo[2,3-b]pyridin-2-yl)-1H-pyrazolo[3,4-c]pyridin-5-yl)pyridin-3-amine] | > 10 µM | > 10 µM | > 10 µM | 3.7% | 9.2% | 8.2%

The next lines start with results.

EC50 [1] | EC50 (IL-6 (THP-1 cells)) | EC50 (SW480 colon cancer cells) | SMILES | inhibition at 10 µM (IL-6 (THP-1 cells)) | inhibition at 10 µM (SW480 colon cancer cells) | inhibition at 10 µM [1]
> 10 µM | > 10 µM | > 10 µM | CC(C)(C)C(=O)Nc1cncc(-c2cc3c(-c4cc5c(-c6cccnc6)ccnc5[nH]4)n[nH]c3cn2)c1 [Compound 92, N-(5-(3-(4-(Pyridin-3-yl)-1H-pyrrolo[2,3-b]pyridin-2-yl)-1H-pyrazolo[3,4-c]pyridin-5-yl)pyridin-3-yl)pivalamide] | 23.3% | 14.9% | 3.4%
> 10 µM | > 10 µM | > 10 µM | O=C(Nc1cncc(-c2cc3c(-c4cc5c(-c6cccnc6)ccnc5[nH]4)n[nH]c3cn2)c1)c1ccccc1 [Compound 95, N-(5-(3-(4-(Pyridin-3-yl)-1H-pyrrolo[2,3-b]pyridin-2-yl)-1H-pyrazolo[3,4-c]pyridin-5-yl)pyridin-3-yl)benzamide] | 31.8% | 14.2% | 8.7%
> 10 µM | > 10 µM | > 10 µM | CC(C)Nc1cncc(-c2cc3c(-c4cc5c(-c6cccnc6)ccnc5[nH]4)n[nH]c3cn2)c1 [Compound 96, N-Isopropyl-5-(3-(4-(pyridin-3-yl)-1H-pyrrolo[2,3-b]pyridin-2-yl)-1H-pyrazolo[3,4-c]pyridin-5-yl)pyridin-3-amine] | 23.5% | 20.5% | 30.3%
> 10 µM | > 10 µM | > 10 µM | c1cncc(-c2ccnc3[nH]c(-c4n[nH]c5cnc(-c6cncc(CN7CCCC7)c6)cc45)cc23)c1 [Compound 98, 3-(4-(Pyridin-3-yl)-1H-pyrrolo[2,3-b]pyridin-2-yl)-5-(5-(pyrrolidin-1-ylmethyl)pyridin-3-yl)-1H-pyrazolo[3,4-c]pyridine] | 27.7% | 11.5% | 25.2%
> 10 µM | > 10 µM | > 10 µM | CCCCC(=O)Nc1cncc(-c2cc3c(-c4cc5c(-c6cccnc6)ccnc5[nH]4)n[nH]c3cn2)c1 [Compound 103, N-(5-(3-(4-(Pyridin-3-yl)-1H-pyrrolo[2,3-b]pyridin-2-yl)-1H-pyrazolo[3,4-c]pyridin-5-yl)pyridin-3-yl)pentanamide] | 17.8% | 7.4% | 7.8%
> 10 µM | > 10 µM | > 10 µM | c1cncc(-c2ccnc3[nH]c(-c4n[nH]c5cnc(-c6cncnc6)cc45)cc23)c1 [Compound 111, 3-(4-(Pyridin-3-yl)-1H-pyrrolo[2,3-b]pyridin-2-yl)-5-(pyrimidin-5-yl)-1H-pyrazolo[3,4-c]pyridine] | 37.4% | 17.3% | 7.8%
